Reference: the NIST ThermoML archive (doi:10.1016/j.tca.2011.01.001)
Numbers after ± are expanded uncertainties.

Key:
[1] = for Normal melting temperature: DTA
[2] = Molar enthalpy of transition or fusion; settings: Crystal; DSC

O=C(O)c1ccc(O)cc1O [2,4-dihydroxybenzoic acid]
[1]
Settings | vapor or sublimation pressure [kPa]
364.2 K, Crystal, Torsion effusion method | 6.2e-05 ± 3e-06
365.3 K, Crystal, Torsion effusion method | 7e-05 ± 4e-06
366.3 K, Crystal, Torsion effusion method | 8e-05 ± 4e-06
367.1 K, Crystal, Torsion effusion method | 8.9e-05 ± 5e-06
368.3 K, Crystal, Torsion effusion method | 0.000101 ± 5e-06
369.6 K, Crystal, Torsion effusion method | 0.000116 ± 6e-06
370.8 K, Crystal, Torsion effusion method | 0.000131 ± 7e-06
372.5 K, Crystal, Torsion effusion method | 0.000155 ± 8e-06
374.2 K, Crystal, Torsion effusion method | 0.000187 ± 9e-06
375.7 K, Crystal, Torsion effusion method | 0.000218 ± 1.1e-05
377.1 K, Crystal, Torsion effusion method | 0.000255 ± 1.3e-05
379 K, Crystal, Torsion effusion method | 0.000312 ± 1.6e-05
380.3 K, Crystal, Torsion effusion method | 0.000353 ± 1.8e-05
382.5 K, Crystal, Torsion effusion method | 0.000391 ± 2e-05
383 K, Crystal, Torsion effusion method | 0.000423 ± 2.1e-05
384.1 K, Crystal, Torsion effusion method | 0.000512 ± 2.6e-05
385.2 K, Crystal, Torsion effusion method | 0.000576 ± 2.9e-05
387.3 K, Crystal, Torsion effusion method | 0.000655 ± 3.3e-05
388.1 K, Crystal, Torsion effusion method | 0.000735 ± 3.7e-05
389.2 K, Crystal, Torsion effusion method | 0.000821 ± 4.1e-05
390.1 K, Crystal, Torsion effusion method | 0.000912 ± 4.6e-05
511.2 K, Liquid, Non-isothermal TG | 2.825 ± 0.6
511.7 K, Liquid, Non-isothermal TG | 2.896 ± 0.61
512.2 K, Liquid, Non-isothermal TG | 3.022 ± 0.62
512.7 K, Liquid, Non-isothermal TG | 3.073 ± 0.63
513.3 K, Liquid, Isothermal TG | 3.108 ± 0.64
513.8 K, Liquid, Isothermal TG | 3.111 ± 0.64
514.3 K, Liquid, Isothermal TG | 3.167 ± 0.66
514.8 K, Liquid, Non-isothermal TG | 3.343 ± 0.68
515.3 K, Liquid, Non-isothermal TG | 3.35 ± 0.68
515.8 K, Liquid, Non-isothermal TG | 3.458 ± 0.7
516.4 K, Liquid, Non-isothermal TG | 3.553 ± 0.73
516.9 K, Liquid, Isothermal TG | 3.606 ± 0.73
517.4 K, Liquid, Isothermal TG | 3.622 ± 0.74
517.9 K, Liquid, Isothermal TG | 3.638 ± 0.74
518.4 K, Liquid, Isothermal TG | 3.711 ± 0.76
518.9 K, Liquid, Non-isothermal TG | 3.901 ± 0.8
519.4 K, Liquid, Non-isothermal TG | 3.97 ± 0.81
519.9 K, Liquid, Non-isothermal TG | 4.016 ± 0.82
520.4 K, Liquid, Non-isothermal TG | 4.161 ± 0.84
520.9 K, Liquid, Isothermal TG | 4.222 ± 0.86
521.4 K, Liquid, Isothermal TG | 4.207 ± 0.86
521.9 K, Liquid, Isothermal TG | 4.223 ± 0.86
522.4 K, Liquid, Isothermal TG | 4.342 ± 0.89
522.9 K, Liquid, Non-isothermal TG | 4.463 ± 0.91
523.4 K, Liquid, Non-isothermal TG | 4.543 ± 0.92
523.9 K, Liquid, Non-isothermal TG | 4.649 ± 0.94
524.4 K, Liquid, Non-isothermal TG | 4.833 ± 0.98
525.4 K, Liquid, Isothermal TG | 4.975 ± 1
526.4 K, Liquid, Isothermal TG | 5.059 ± 1
526.9 K, Liquid, Isothermal TG | 5.093 ± 1
527.4 K, Liquid, Isothermal TG | 5.122 ± 1
528.4 K, Liquid, Non-isothermal TG | 5.41 ± 1.1
528.9 K, Liquid, Non-isothermal TG | 5.477 ± 1.1
529.4 K, Liquid, Non-isothermal TG | 5.483 ± 1.1
529.9 K, Liquid, Non-isothermal TG | 5.556 ± 1.1
530.4 K, Liquid, Isothermal TG | 5.598 ± 1.1
530.9 K, Liquid, Isothermal TG | 5.667 ± 1.1
531.5 K, Liquid, Isothermal TG | 5.675 ± 1.2
532 K, Liquid, Isothermal TG | 5.825 ± 1.2
532.5 K, Liquid, Non-isothermal TG | 5.928 ± 1.2
533 K, Liquid, Non-isothermal TG | 6.061 ± 1.2
533.5 K, Liquid, Isothermal TG | 6.226 ± 1.3
534 K, Liquid, Isothermal TG | 6.322 ± 1.3

Settings | Normal melting temperature [°C]
[1], Crystal | 228.6 ± 0.5

Settings | Molar enthalpy of transition or fusion [kcal/mol]
[2] | 7.41 ± 0.478

O=C(O)c1c(O)cccc1O [2,6-dihydroxybenzoic acid]
[1]
Settings | vapor or sublimation pressure [kPa]
346 K, Crystal, Torsion effusion method | 9.9e-05 ± 5e-06
347 K, Crystal, Torsion effusion method | 0.000113 ± 6e-06
351.5 K, Crystal, Torsion effusion method | 0.00017 ± 9e-06
353.3 K, Crystal, Torsion effusion method | 0.000216 ± 1.1e-05
354 K, Crystal, Torsion effusion method | 0.000223 ± 1.1e-05
355 K, Crystal, Torsion effusion method | 0.000248 ± 1.2e-05
357 K, Crystal, Torsion effusion method | 0.000307 ± 1.5e-05
358 K, Crystal, Torsion effusion method | 0.000341 ± 1.7e-05
360.5 K, Crystal, Torsion effusion method | 0.000443 ± 2.2e-05
361 K, Crystal, Torsion effusion method | 0.000467 ± 2.4e-05
361.5 K, Crystal, Torsion effusion method | 0.000492 ± 2.5e-05
363 K, Crystal, Torsion effusion method | 0.000574 ± 2.9e-05
363.5 K, Crystal, Torsion effusion method | 0.000604 ± 3e-05
365 K, Crystal, Torsion effusion method | 0.000704 ± 3.5e-05
366 K, Crystal, Torsion effusion method | 0.000779 ± 3.9e-05
367 K, Crystal, Torsion effusion method | 0.000851 ± 4.3e-05
367.5 K, Crystal, Torsion effusion method | 0.0009 ± 4.5e-05
369 K, Crystal, Torsion effusion method | 0.001031 ± 5.2e-05
454.2 K, Liquid, Non-isothermal TG | 0.643 ± 0.14
454.7 K, Liquid, Non-isothermal TG | 0.681 ± 0.14
455.7 K, Liquid, Non-isothermal TG | 0.722 ± 0.15
456.7 K, Liquid, Non-isothermal TG | 0.754 ± 0.16
457.7 K, Liquid, Non-isothermal TG | 0.804 ± 0.17
458.7 K, Liquid, Isothermal TG | 0.809 ± 0.17
458.7 K, Liquid, Non-isothermal TG | 0.853 ± 0.18
459.1 K, Liquid, Isothermal TG | 0.829 ± 0.17
459.2 K, Liquid, Isothermal TG | 0.848 ± 0.17
459.7 K, Liquid, Non-isothermal TG | 0.904 ± 0.19
459.8 K, Liquid, Isothermal TG | 0.868 ± 0.18
460.2 K, Liquid, Isothermal TG | 0.887 ± 0.18
460.6 K, Liquid, Isothermal TG | 0.907 ± 0.19
460.7 K, Liquid, Isothermal TG | 0.928 ± 0.19
460.8 K, Liquid, Non-isothermal TG | 0.954 ± 0.2
461 K, Liquid, Isothermal TG | 0.928 ± 0.19
461.5 K, Liquid, Isothermal TG | 0.948 ± 0.2
461.8 K, Liquid, Non-isothermal TG | 1.006 ± 0.21
461.9 K, Liquid, Isothermal TG | 0.968 ± 0.2
462 K, Liquid, Isothermal TG | 0.979 ± 0.2
462.7 K, Liquid, Isothermal TG | 1 ± 0.21
462.7 K, Liquid, Non-isothermal TG | 1.056 ± 0.21
463.1 K, Liquid, Isothermal TG | 1.027 ± 0.21
463.5 K, Liquid, Isothermal TG | 1.048 ± 0.21
463.6 K, Liquid, Isothermal TG | 1.055 ± 0.22
463.8 K, Liquid, Non-isothermal TG | 1.077 ± 0.22
464.3 K, Liquid, Isothermal TG | 1.087 ± 0.22
464.7 K, Liquid, Isothermal TG | 1.108 ± 0.23
464.8 K, Liquid, Non-isothermal TG | 1.121 ± 0.23
465.1 K, Liquid, Isothermal TG | 1.113 ± 0.23
465.2 K, Liquid, Isothermal TG | 1.14 ± 0.23
465.8 K, Liquid, Non-isothermal TG | 1.175 ± 0.24
465.9 K, Liquid, Isothermal TG | 1.167 ± 0.24
466.3 K, Liquid, Isothermal TG | 1.187 ± 0.24
466.7 K, Liquid, Isothermal TG | 1.208 ± 0.25
466.8 K, Liquid, Isothermal TG | 1.227 ± 0.25
466.8 K, Liquid, Non-isothermal TG | 1.22 ± 0.25
467.5 K, Liquid, Isothermal TG | 1.248 ± 0.26
467.8 K, Liquid, Non-isothermal TG | 1.313 ± 0.27
467.9 K, Liquid, Isothermal TG | 1.267 ± 0.26
468.3 K, Liquid, Isothermal TG | 1.288 ± 0.26
468.4 K, Liquid, Isothermal TG | 1.307 ± 0.27
468.8 K, Liquid, Non-isothermal TG | 1.364 ± 0.28
469.1 K, Liquid, Isothermal TG | 1.328 ± 0.27
469.5 K, Liquid, Isothermal TG | 1.348 ± 0.28
469.8 K, Liquid, Non-isothermal TG | 1.412 ± 0.29
470 K, Liquid, Isothermal TG | 1.381 ± 0.28
470.1 K, Liquid, Isothermal TG | 1.389 ± 0.28
470.8 K, Liquid, Isothermal TG | 1.434 ± 0.29
470.8 K, Liquid, Non-isothermal TG | 1.464 ± 0.3
471.2 K, Liquid, Isothermal TG | 1.442 ± 0.3
471.6 K, Liquid, Isothermal TG | 1.472 ± 0.3
471.7 K, Liquid, Isothermal TG | 1.509 ± 0.31
471.7 K, Liquid, Non-isothermal TG | 1.51 ± 0.31
472.5 K, Liquid, Isothermal TG | 1.546 ± 0.32
472.7 K, Liquid, Non-isothermal TG | 1.557 ± 0.32
473.7 K, Liquid, Non-isothermal TG | 1.644 ± 0.34
474.8 K, Liquid, Non-isothermal TG | 1.761 ± 0.36
475.7 K, Liquid, Non-isothermal TG | 1.829 ± 0.38
476.7 K, Liquid, Non-isothermal TG | 1.847 ± 0.37

Settings | Normal melting temperature [°C]
[1], Crystal | 170.6 ± 0.5

Settings | Molar enthalpy of transition or fusion [kcal/mol]
[2] | 5.98 ± 0.478
